Experimental data reported in patent US12187715B2, “Small molecule activators of Tie-2” (EyePoint Pharmaceuticals, Inc., priority 2019, dated 2025).

Assay: Syringability testing (200 g weight on BD 1-mL syringe plunger, 27 G needle)
Format: physicochemical
Details: for Syringability of the saturated solutions (in words): undiluted solutions
Experimental: Syringability testing was carried out by applying 200 g of weight on top of a BD 1-mL syringe plunger and measuring the time required to expel 1 mL of the saturated solutions through a 27 G needle. The times are recorded in TABLE 4. At T=0, 43 seconds were required to expel 1 mL of Compound 2, while 8 seconds were required to expel 1 mL of Compound 4. In contrast, approximately 5 minutes were required to expel only 0.1 mL of Compound 3, based on the very high viscosity of the solution relative to that of the other two.
Syringability test results of the 50% diluted solutions (TABLE 5) indicated a slight increase in viscosity (syringability test for water was 10 sec). All three solutions remained easily syringable.

[1] = 50% diluted solution, T = 2 week
[2] = 50% diluted solution, T = 3 week
[3] = 50% diluted solution, T = 4 week
[4] = 50% diluted solution, T = 2 day
[5] = 50% diluted solution, T = 3 day
[6] = 50% diluted solution, T = 4 day
[7] = 50% diluted solution, T = 7 day
[8] = saturated (undiluted) solution, T = 0
[9] = saturated (undiluted) solution, T = 1 day
[10] = saturated (undiluted) solution, T = 2 day
[11] = saturated (undiluted) solution, T = 3 day

Compound: COC(=O)N(C)[C@@H](Cc1ccccc1)C(=O)N[C@@H](Cc1ccc(NS(=O)(=O)[O-])cc1)c1csc(-c2cccs2)n1.[Na+] [Compound 2, sodium (4-{(S)-2-{(S)-2-[(methoxycarbonyl)(methyl)amino]-3-phenylpropanamido}-2-[2-(thiophen-2-yl)thiazol-4-yl]ethyl}phenyl)sulfamate]
- Syringability: time to expel 1 mL [1]: 14 s
- Syringability: time to expel 1 mL [2]: 11 s
- Syringability: time to expel 1 mL [3]: 11 s
- Syringability: time to expel 1 mL [4]: 10 s
- Syringability: time to expel 1 mL [5]: 15 s
- Syringability: time to expel 1 mL [6]: 18 s
- Syringability: time to expel 1 mL [7]: 15 s
- Syringability: time to expel 1 mL [8]: 43 s
- Syringability: time to expel 1 mL [9]: 52 s
- Syringability: time to expel 1 mL [10]: 65 s
- Syringability: time to expel 1 mL [11]: 58 s
- Syringability of the saturated solutions (in words): syringable

Compound: COC(=O)N(C)[C@@H](Cc1ccccc1)C(=O)N(C)[C@@H](Cc1ccc(NS(=O)(=O)[O-])cc1)c1csc(-c2cccs2)n1.[Na+] [Compound 4, sodium (4-{(S)-2-{(S)-2-[(methoxycarbonyl)(methyl)amino]-N-methyl-3-phenylpropanamido}-2-[2-(thiophen-2-yl)thiazol-4-yl]ethyl}phenyl)sulfamate]
- Syringability: time to expel 1 mL [1]: 13 s
- Syringability: time to expel 1 mL [2]: 13 s
- Syringability: time to expel 1 mL [3]: 14 s
- Syringability: time to expel 1 mL [4]: 12 s
- Syringability: time to expel 1 mL [5]: 14 s
- Syringability: time to expel 1 mL [6]: 15 s
- Syringability: time to expel 1 mL [7]: 12 s
- Syringability: time to expel 1 mL [8]: 8 s
- Syringability: time to expel 1 mL (saturated (undiluted) solution, T = 2 week): 13 s
- Syringability: time to expel 1 mL (saturated (undiluted) solution, T = 3 week): 12 s
- Syringability: time to expel 1 mL (saturated (undiluted) solution, T = 4 week): 13 s
- Syringability: time to expel 1 mL [9]: 12 s
- Syringability: time to expel 1 mL [10]: 15 s
- Syringability: time to expel 1 mL [11]: 12 s
- Syringability: time to expel 1 mL (saturated (undiluted) solution, T = 4 day): 13 s
- Syringability: time to expel 1 mL (saturated (undiluted) solution, T = 5 day): 14 s
- Syringability: time to expel 1 mL (saturated (undiluted) solution, T = 6 day): 14 s
- Syringability of the saturated solutions (in words): syringable
